This note sets out measurements from patent US6841682B2, “Heterocycles useful in the treatment of benign prostatic hyperplasia” (Janseen Pharmaceutica N.V., priority 1997, dated 2005).

The target in one assay is T1, α1a-AR (Homo sapiens, UniProt P35348).
T1 construct: expressed in transfected cells; host or cells: COS cells (pcDNA3 vector, DEAE-dextran transient transfection); membrane preparation
T1 sequence (P35348 1-466): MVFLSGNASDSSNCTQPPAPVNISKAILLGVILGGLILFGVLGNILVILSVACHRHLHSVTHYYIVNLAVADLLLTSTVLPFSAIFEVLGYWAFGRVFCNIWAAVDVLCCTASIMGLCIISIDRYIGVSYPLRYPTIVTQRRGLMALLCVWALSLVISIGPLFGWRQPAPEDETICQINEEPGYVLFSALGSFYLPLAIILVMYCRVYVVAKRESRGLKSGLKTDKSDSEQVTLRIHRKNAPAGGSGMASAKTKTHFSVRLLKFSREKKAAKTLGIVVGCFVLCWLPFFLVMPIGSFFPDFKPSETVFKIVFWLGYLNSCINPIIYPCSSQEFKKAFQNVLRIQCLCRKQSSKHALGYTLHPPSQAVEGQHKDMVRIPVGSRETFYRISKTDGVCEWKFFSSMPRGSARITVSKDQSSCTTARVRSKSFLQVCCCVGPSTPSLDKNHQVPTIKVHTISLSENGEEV
The assay can be described thus: radioligand ([125I]-HEAT) receptor binding assay, COS cell membranes, α1a-AR. Conditions: Tables A-J; [125I]-HEAT 50 pM, COS membranes; read-out: α1a IC50. The source says:
The first assay tested the ability of compounds of Formula I to bind to membrane bound receptors α1a-AR, α1b-AR and α1d-AR.
The DNA sequences of the three cloned human α1-AR subtypes have been published. […] We used published DNA sequence information to design-primers for use in RT-PCR amplification of each subtype to obtain cloned cDNAs. Human poly A+ RNA was obtained from commercially available sources and included hippocampus and prostate samples, sources which have been cited in the literature. For the primary screen a radio ligand binding assay was used which employed membrane preparations from cells expressing the individual cloned receptor cDNAs.
Each α1 receptor subtype was cloned from poly A+ RNA by the standard method of reverse transcription-polymerase chain reaction (RT-PCR). The following sources of polyA+ RNA were used for the cloning of the al receptor subtypes: α1a-AR, human hippocampus and prostate, α1b-AR, human hippocampus, α1d-AR, human hippocampus. The resulting cDNAs were cloned into the pcDNA3 mammalian expression vector (Invitrogen Corp., San Diego Calif.). Each DNA was sequenced for verification and to detect any possible mutations introduced during the amplification process. Any deviation in sequence from the published consensus for each receptor subtype was corrected by site-directed mutagenesis.
The three α1-AR subtypes (a, b, d) were transfected into COS cells using a standard DEAE-dextran procedure with a chloroquine shock. In this procedure, each tissue culture dish (100 mm) was inoculated with 3.5×10^6 cells and transfected with 10 μg of DNA. Approximately 72 hours post-transfection, the cells were harvested and COS membranes were prepared. Transfected COS cells from 25 plates (100 mm) were scraped and suspended in 15 mL of TE buffer (50 mM Tris-HCl, 5 mM EDTA, pH7.4). The suspension was disrupted with a homogenizer. It was then centrifuged at 1000×g for 10 minutes at 4° C. The supernatant was centrifuged at 34,500×g for 20 minutes at 4° C. The pellet was resuspended in 5 mL TNE buffer (50 mM Tris-HCl, 5 mM EDTA, 150 mM NaCl, pH7.4). The resulting membrane preparation was aliquoted and stored at −70° C. The protein concentration was determined following membrane solubilization with TritonX-100.
The ability of each compound to bind to each of the α1-AR subtypes was assessed in a receptor binding assay. […] The plate was incubated for 1 hour at room temperature and the reaction mixtures were filtered through a Packard GF/C Unifilter filter plate. The filter plate was dried for 1 hour in a vacuum oven. Scintillation fluid ([…]) was added to each well, and the filter plate was counted in a Packard Topcount scintillation counter. Data was analyzed using GraphPad Prism software.

A further assay relates to rat aorta tissues. The assay can be described thus: norepinephrine-induced contractile response of rat aorta tissue. It counts as tissue-based. As to conditions: rat aortic rings, 37° C., pH 7.4, read-out: IC50, inhibition of contractile response in aortic tissue. An excerpt:
(§1) The contractile responses of rat prostatic tissue and rat aorta tissues were examined in the presence and absence of antagonist compounds. As an indication of the selectivity of antagonism, test compound effects on vascular smooth muscle contractility (α1b-AR and α1d-AR) were compared to the effects on prostatic smooth muscle (α1a-AR). Strips of prostatic tissue and aortic rings were obtained from Long Evans derived male rats weighing 275 grams and sacrificed by cervical dislocation. The prostate tissue was placed under 1 gram tension in a 10 ml bath containing phosphate buffered saline pH 7.4 at 32° C. and isometric tension was measured with force transducers. The aortic tissue was placed under 2 grams tension in a 10 ml bath containing phosphate buffered saline pH 7.4 at 37° C. The ability of test compound to reduce the norepinephrine-induced contractile response by 50% (IC50) was determined.

Another assay has as its system rat prostatic tissue. Put plainly: norepinephrine-induced contractile response of rat prostatic tissue. It counts as cell-based. As to conditions: rat prostate strips, 32° C., pH 7.4, read-out: IC50, inhibition of contractile response in prostate tissue.
From the text: as §1

Molecules are shown by their SMILES.

With `CC(C)Oc1ccccc1N1CCN(Cc2ncc(CN3CCCCC3=O)s2)CC1` [Compound 16], the IC50 (as a rule, the concentration that gives 50% inhibition) on α1a-AR stood at 1.88 nM; in the assay on rat aorta tissues, 13500 nM; in the assay with rat prostatic tissue, 380 nM.
For `CC(C)Oc1ccccc1N1CCN(Cc2cc(CN3CCCCC3=O)n[nH]2)CC1` [Compound 3], in that order: 2.1 nM, 31900 nM and 1300 nM.
